Source: patent US12629358B2, “Compound used as RET kinase inhibitor and application thereof” (TYK MEDICINES, INC., priority 2019, dated 2026)
Changes are numbered by the printed parent chain. Where two headings read alike, the source gives them in different places.

Experiments:
[1] = tested on: tumor patients with RET fusion and mutation; details: Phase I, cited from earlier work
[2] = Metabolism test of drugs: plasma pharmacokinetics after intravenous and intragastric administration; format: in vivo; details: SD rats; for CL_obs / AUC(0-inf) / AUC(0-t) / half-life / MRT / Vd / Cmax / Tmax: plasma; for F: PO 10 mg/kg vs IV 2 mg/kg; for AUC(0-inf) / AUC(0-t) / half-life / MRT / Vd / Cmax / Tmax: male, rat; for MRT: read-out: MRTINF_ obs; for Vd: read-out: Vss
Experimental: Four small molecule compounds of BLU-667, compound C2, compound C4 and compound C8 were administered to SD rats by intravenous and intragastric administration respectively. Blood samples were collected at different time points to determine the concentration of drugs in plasma after administration and calculate the related pharmacokinetics parameters.
The vehicle of BLU-667, C2, C4 and C8 was 10% NMP+49% PEG400+1% Tween80+40% Water. The specific preparation method was as follows: proper amount of tested samples was weighed, dissolved in 10% NMP+49% PEG400+1% Tween80+40% Water, mixed well by vortex for later use.
LC-MS/MS was used by the analysis department of the experimental organization to detect and analyze the prepared solution of sample for test.
Healthy male SD rats were used in this research. Animal weight: 150-200 g. All animals fasted before administration, and resumed feeding 4 hours after administration.
Time points for blood collection were: • Intravenous administration (groups 1, 3 and 5): 0.0833, 0.25, 0.5, 1, 2, 4, 8, 12 and 24 hours after administration. (±2 min at time point ≤2 hr, ±15 min at other points.) • Oral administration: (groups 2, 4, 6 and 7): 0.25, 0.5, 1, 2, 4, 8, 12 and 24 hours after administration. (±2 m at time point […] at other points.)
About 0.1 mL of blood was collected from each animal through jugular vein every time, and EDTA or heparin sodium was used as anticoagulant. Blood samples were collected and placed on ice, and plasma was separated by centrifugation (centrifugation conditions: 5000 r/min, 6 min, 4° C.).
LC-MS/MS was used by the analysis department of the experimental organization to analyze the plasma samples of rats.
According to the data of blood drug concentration of the drug, the pharmacokinetic parameters AUC0→t, AUC0→∞, MRT0→∞, CMax, TMax, Vss, F, CL and T1/2 as well as their mean and standard deviation of the samples for test were calculated respectively by pharmacokinetic calculation software WinNonlin non-compartment model.
The main pharmacokinetic parameters of BLU-667, compound C2, compound C4 and compound C8 in plasma after intravenous and single oral administration of BLU-667, compound C2, compound C4 and compound C8 in SD rats were shown in Table 3

[3] = molecular target: T1, Ba/F3-KIF5B-RET cells (Homo sapiens, UniProt P07949); experiment: Cell anti-proliferation experiment (CellTiter-Glo), Ba/F3-KIF5B-RET; format: cell-based; details: cell viability, 72 h
T1 construct: host or cells: Ba/F3 (BaF3 from RIKEN BRC CELL BANK); the other entry of the earlier key: KIF5B (P33176, Kinesin-1 heavy chain)
T1 sequence (P07949 713-1063 limits assumed): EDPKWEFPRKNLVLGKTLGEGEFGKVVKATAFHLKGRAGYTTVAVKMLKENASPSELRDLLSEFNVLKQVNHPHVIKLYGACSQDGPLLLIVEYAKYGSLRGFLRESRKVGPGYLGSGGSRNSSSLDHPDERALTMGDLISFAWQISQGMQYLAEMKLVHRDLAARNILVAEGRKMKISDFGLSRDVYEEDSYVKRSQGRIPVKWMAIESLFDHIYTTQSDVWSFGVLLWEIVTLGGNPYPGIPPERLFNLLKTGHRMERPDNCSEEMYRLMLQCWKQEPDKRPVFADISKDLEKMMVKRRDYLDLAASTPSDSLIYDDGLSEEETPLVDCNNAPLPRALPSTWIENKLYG
Experimental: (§1) Ba/F3-KIF5B-RET, Ba/F3-KIF5B-RET-V804L and Ba/F3-KIF5B-RET-V804M cells were constructed by PreceDo Pharmaceuticals Co., Ltd.
(§2) Ba/F3-KIF5B-RET, Ba/F3-KIF5B-RET-V804L and Ba/F3-KIF5B-RET-V804M medium: RPMI-1640+10% FBS+1% P/S.
(§3) A 1000× solution of the compound was prepared with DMSO, the compound was diluted to 20 times final concentration with a growth medium, and […] was added.
(§4) The suspended cells were rotated downward, resuscitated in the growth medium, and then counted with a cell counter. The cell suspension was diluted to the desired concentration in the growth medium. 95p L cell suspension was fed to a 96-well plate. 5 μL of 20× compound was added to the […], and the final DMSO concentration per well was 0.1%; incubated at 37° C. with 5% CO2 for 72 h
(§5) The plate was equilibrated to room temperature before measurement, 50 μl of CellTiter-Glo® reagent was added into each well, mixed on a shaker for 2 minutes, incubated at room temperature for 10 minutes, and recorded with Paradigm.
(§6) Cell viability was analyzed using Graphpad 7.0 software according to the formula Cell viability (CV %)=(RLU compound−RLU blank)/(RLU control−RLU blank)*100%, and the corresponding IC50 data were calculated as shown in Table 2

[4] = molecular target: wild-type RET kinase (Homo sapiens, UniProt P07949); experiment: Enzyme activity test against wild-type RET kinase (33P-ATP filter-binding kinase activity assay); format: biochemical; details: ATP Km concentration, 10 concentrations
Experimental: A biological activity test experiment was conducted below for some compounds of the above Examples and Comparative Example.
[…]. The biological activity screening of the compounds will be determined repeatedly at 10 concentrations.
Each sample was prepared into a solution with a concentration of 10 mM.
The test compound was dissolved in 100% dimethyl sulfoxide to a specific concentration. Integra Viaflo Assist was used to assist DMSO for (continuous) dilution.
Kinase was added to the newly prepared basic reaction buffer
Adding any desired cofactors to the substrate solution.
Adding wild-type RET kinase into the substrate solution and gently mixing;
Acoustic technology (Echo 550; Nanoliter range) was used to feed the compounds in 100% of dimethyl sulfoxide into the kinase reaction mixture and incubated at room temperature for 20 minutes.
33P-ATP (specific activity 10 Ci/l) was added to the reaction mixture to start the reaction.
Incubated at room temperature for 2 hours
Radioactivity was detected by filter-binding method.
Kinase activity data was expressed as the percentage of remaining kinase activity in the test sample compared to the vehicle (dimethyl sulfoxide) reaction. Prism (GRAPHPAD software) was used to obtain IC50 value and curve-fitting.

[5] = molecular target: T2, Ba/F3-KIF5B-RET-V804M cells (Homo sapiens, UniProt P07949, V804M); experiment: Cell anti-proliferation experiment (CellTiter-Glo), Ba/F3-KIF5B-RET-V804M; format: cell-based; details: cell viability, 72 h
T2 construct: host or cells: Ba/F3 (BaF3 from RIKEN BRC CELL BANK); the other entry of the earlier key: KIF5B (P33176, Kinesin-1 heavy chain)
T2 sequence (P07949 713-1063 V804M limits assumed): T1 sequence (P07949 713-1063 limits assumed) with V92M
Experimental: as §1, §2, §3, §4, §5, §6

[6] = molecular target: T3, Ba/F3-KIF5B-RET-V804L cells (Homo sapiens, UniProt P07949, V804L); experiment: Cell anti-proliferation experiment (CellTiter-Glo), Ba/F3-KIF5B-RET-V804L; format: cell-based; details: cell viability, 72 h
T3 construct: host or cells: Ba/F3 (BaF3 from RIKEN BRC CELL BANK); the other entry of the earlier key: KIF5B (P33176, Kinesin-1 heavy chain)
T3 sequence (P07949 713-1063 V804L limits assumed): T1 sequence (P07949 713-1063 limits assumed) with V92L
Experimental: as §1, §2, §3, §4, §5, §6

[7] = PO, versus control compound (BLU-667)

wild-type RET kinase, sequence (P07949 29-1114): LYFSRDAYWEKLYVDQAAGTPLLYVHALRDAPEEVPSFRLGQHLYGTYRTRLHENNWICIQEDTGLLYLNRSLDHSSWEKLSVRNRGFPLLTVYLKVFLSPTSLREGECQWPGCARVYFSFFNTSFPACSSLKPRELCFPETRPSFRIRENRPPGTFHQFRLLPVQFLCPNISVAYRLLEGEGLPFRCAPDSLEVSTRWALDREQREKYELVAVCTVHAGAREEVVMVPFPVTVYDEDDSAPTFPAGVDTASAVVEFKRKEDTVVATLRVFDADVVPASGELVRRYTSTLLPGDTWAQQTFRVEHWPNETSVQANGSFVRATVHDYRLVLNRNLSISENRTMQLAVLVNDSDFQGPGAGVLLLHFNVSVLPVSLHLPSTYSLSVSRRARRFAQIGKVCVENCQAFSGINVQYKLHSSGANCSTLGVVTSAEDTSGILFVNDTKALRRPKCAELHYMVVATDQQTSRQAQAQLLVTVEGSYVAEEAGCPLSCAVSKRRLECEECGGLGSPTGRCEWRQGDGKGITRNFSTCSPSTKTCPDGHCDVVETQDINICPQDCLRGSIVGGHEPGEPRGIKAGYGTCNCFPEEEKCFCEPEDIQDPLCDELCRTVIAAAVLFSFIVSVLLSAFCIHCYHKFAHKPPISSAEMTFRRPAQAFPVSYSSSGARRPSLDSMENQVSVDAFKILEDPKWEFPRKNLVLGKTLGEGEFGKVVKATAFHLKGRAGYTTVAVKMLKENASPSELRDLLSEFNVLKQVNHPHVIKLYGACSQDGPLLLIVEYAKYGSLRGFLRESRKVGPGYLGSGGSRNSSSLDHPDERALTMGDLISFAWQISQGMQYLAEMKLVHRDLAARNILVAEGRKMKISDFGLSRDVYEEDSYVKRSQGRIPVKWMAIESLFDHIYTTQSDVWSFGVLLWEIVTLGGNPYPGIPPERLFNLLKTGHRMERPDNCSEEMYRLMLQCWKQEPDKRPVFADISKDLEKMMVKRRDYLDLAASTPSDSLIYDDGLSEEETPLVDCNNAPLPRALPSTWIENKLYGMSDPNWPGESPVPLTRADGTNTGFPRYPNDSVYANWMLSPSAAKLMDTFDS

CL_obs ([2]; IV, 2 mg/kg)	F [2]	AUC(0-inf) ([2]; IV, 2 mg/kg)	AUC(0-t) ([2]; IV, 2 mg/kg)	half-life ([2]; IV, 2 mg/kg)	MRT ([2]; IV, 2 mg/kg)	Vd ([2]; IV, 2 mg/kg)	AUC(0-inf) ([2]; PO, 10 mg/kg)	AUC(0-t) ([2]; PO, 10 mg/kg)	Cmax ([2]; PO, 10 mg/kg)	Tmax ([2]; PO, 10 mg/kg)	half-life ([2]; PO, 10 mg/kg)	MRT ([2]; PO, 10 mg/kg)	IC50 [4]	Compound	IC50 [3]	IC50 [5]	IC50 [6]	other results
24.5 mL/min/kg	61.14%	1410 ng·h/mL	1330 ng·h/mL	5.52 h	6.1 h	8.53 L/kg	4110 ng·h/mL	4080 ng·h/mL	632 ng/mL	4 h	3.36 h	5.08 h		CO[C@]1(C(=O)N[C@@H](C)c2ccc(-n3cc(F)cn3)nc2)CC[C@H](c2nc(C)cc(Nc3cc(C)[nH]n3)n2)CC1 [BLU-667, reference compound]				ORR ([1]; patients with medullary thyroid carcinoma): 40%; ORR ([1]; patients with non-small cell lung cancer): 50%; overall remission rate (ORR) ([1]; tumor patients with RET fusion and mutation): 45%
7.67 mL/min/kg	49.85%	4430 ng·h/mL	4390 ng·h/mL	4.19 h	3.74 h	1.7 L/kg	11000 ng·h/mL	10900 ng·h/mL	2460 ng/mL	2 h	3.18 h	4.3 h	0.00102 µM	CO[C@]1(C(=O)N[C@@H](C)c2ccc(-n3cc(F)cn3)nc2)CC[C@H](c2nc(Nc3cc(C)[nH]n3)cc3cccnc32)CC1 [Compound C4]	0.0091 µM	0.0173 µM	0.0071 µM	maximum blood drug concentration (Cmax) increased compared with the control compound [2, 7]: 3-4 times; plasma exposure amount AUC increased compared with the control compound [2, 7]: 2-3 times
8.67 mL/min/kg	11.96%	3900 ng·h/mL	3850 ng·h/mL	4.12 h	4.89 h	2.56 L/kg	2320 ng·h/mL	2300 ng·h/mL	325 ng/mL	2 h	3.26 h	6.05 h	0.00198 µM	CO[C@]1(C(=O)N[C@@H](C)c2ccc(-n3cc(F)cn3)nc2)CC[C@H](c2nc(Nc3cc(C)[nH]n3)ccc2C#N)CC1 [Compound C2]	0.0231 µM	0.0424 µM	0.0169 µM	
